Laboratory results as given in PubChem BioAssay AID248 (DTP/NCI, 2004).
“And” between values parts separate entries of the source, which are not always exact repeats. Identical values can stand only once. Toxic doses and inconclusive results are not listed. Cut-off read from the data, not from the text of the source: active = T/C of 150% or more; inactive = T/C below 125%.

Tested on: L1210 leukemia ip in BDF1 mice, survival T/C
Test: NCI In Vivo Anticancer Drug Screen. Data for tumor model L1210 Leukemia (intraperitoneal) in B6D2F1 (BDF1) mice
Conditions: endpoint: mean survival time, higher = longer survival
How it was run: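 Antitumor effect is assessed in tumor-bearing animals. Survival in the compound arm is compared with a vehicle-dosed control arm and expressed as their quotient.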

[1] = dose: 12.5 mg/kg/injection, schedule: Q01DX009 (ip), vehicle: Klucel (hydroxypropylcellulose) (HPC)
[2] = dose: 25.0 mg/kg/injection, schedule: Q01DX009 (ip), vehicle: Klucel (hydroxypropylcellulose) (HPC)
[3] = dose: 100.0 mg/kg/injection, schedule: Q01DX001 (ip), vehicle: saline
[4] = dose: 200.0 mg/kg/injection, schedule: Q01DX001 (ip), vehicle: saline
[5] = dose: 50.0 mg/kg/injection, schedule: Q01DX009 (ip), vehicle: saline
[6] = dose: 50.0 mg/kg/injection, schedule: Q04DX003 (ip), vehicle: saline
[7] = dose: 100.0 mg/kg/injection, schedule: Q01DX009 (ip), vehicle: saline
[8] = dose: 100.0 mg/kg/injection, schedule: Q04DX003 (ip), vehicle: saline
[9] = dose: 200.0 mg/kg/injection, schedule: Q04DX003 (ip), vehicle: saline
[10] = dose: 100.0 mg/kg/injection, schedule: Q01DX001 (ip), vehicle: carboxymethylcellulose (CMC)
[11] = dose: 400.0 mg/kg/injection, schedule: Q01DX001 (ip), vehicle: saline
[12] = dose: 100.0 mg/kg/injection, schedule: Q01DX009 (ip), vehicle: saline with Tween-80
[13] = dose: 100.0 mg/kg/injection, schedule: Q04DX003 (ip), vehicle: saline with Tween-80
[14] = dose: 200.0 mg/kg/injection, schedule: Q01DX009 (ip), vehicle: saline with Tween-80
[15] = dose: 200.0 mg/kg/injection, schedule: Q04DX003 (ip), vehicle: saline with Tween-80
[16] = dose: 400.0 mg/kg/injection, schedule: Q04DX003 (ip), vehicle: saline with Tween-80
[17] = dose: 100.0 mg/kg/injection, schedule: Q04DX002 (ip), vehicle: Klucel (hydroxypropylcellulose) (HPC)
[18] = dose: 200.0 mg/kg/injection, schedule: Q04DX002 (ip), vehicle: Klucel (hydroxypropylcellulose) (HPC)
[19] = dose: 100.0 mg/kg/injection, schedule: Q04DX003 (ip), vehicle: Klucel (hydroxypropylcellulose) (HPC)
[20] = dose: 200.0 mg/kg/injection, schedule: Q04DX003 (ip), vehicle: Klucel (hydroxypropylcellulose) (HPC)
[21] = dose: 400.0 mg/kg/injection, schedule: Q04DX003 (ip), vehicle: Klucel (hydroxypropylcellulose) (HPC)
[22] = dose: 400.0 mg/kg/injection, schedule: Q04DX002 (ip), vehicle: Klucel (hydroxypropylcellulose) (HPC)
[23] = dose: 100.0 mg/kg/injection, schedule: Q01DX009 (ip), vehicle: Klucel (hydroxypropylcellulose) (HPC)
[24] = dose: 200.0 mg/kg/injection, schedule: Q01DX009 (ip), vehicle: Klucel (hydroxypropylcellulose) (HPC)
[25] = dose: 400.0 mg/kg/injection, schedule: Q01DX009 (ip), vehicle: Klucel (hydroxypropylcellulose) (HPC)
[26] = dose: 400.0 mg/kg/injection, schedule: Q04DX003 (ip), vehicle: saline

Measured: T/C

CN(C)c1ccc(/C=C/c2ccc3ccccc3[n+]2C)cc1
inactive: dose: 1.5 mg/kg/injection, schedule: Q01DX009 (ip), vehicle: Klucel (hydroxypropylcellulose) (HPC) 103 % of control | dose: 3.0 mg/kg/injection, schedule: Q01DX009 (ip), vehicle: Klucel (hydroxypropylcellulose) (HPC) 97 % of control | dose: 3.12 mg/kg/injection, schedule: Q01DX009 (ip), vehicle: Klucel (hydroxypropylcellulose) (HPC) 100 % of control | dose: 6.0 mg/kg/injection, schedule: Q04DX003 (ip), vehicle: Klucel (hydroxypropylcellulose) (HPC) 107 % of control | dose: 6.25 mg/kg/injection, schedule: Q01DX009 (ip), vehicle: Klucel (hydroxypropylcellulose) (HPC) 104 % of control | dose: 12.0 mg/kg/injection, schedule: Q04DX003 (ip), vehicle: Klucel (hydroxypropylcellulose) (HPC) 107 % of control | [1] 107 % of control | [2] 96 % of control | dose: 25.0 mg/kg/injection, schedule: Q04DX003 (ip), vehicle: Klucel (hydroxypropylcellulose) (HPC) 86 % of control | [3] 112 % of control | [4] 121 % of control

CSC(N)=Nc1cccc2c1CCCC2
inactive: [5] 98 % of control | [6] 102 % of control | [7] 98 % of control | [8] 88 % of control | [9] 92 % of control

CS(=O)(=O)OCC(=O)O
inactive: dose: 100.0 mg/kg/injection, schedule: Q01DX001 (ip), vehicle: Klucel (hydroxypropylcellulose) (HPC) 93 % of control | dose: 200.0 mg/kg/injection, schedule: Q01DX001 (ip), vehicle: Klucel (hydroxypropylcellulose) (HPC) 97 % of control

O=C1C=C(Nc2ccc(Cl)cc2)C(=O)c2ccccc21
inactive: dose: 75.0 mg/kg/injection, schedule: Q01DX001 (ip), vehicle: carboxymethylcellulose (CMC) 93 % of control | dose: 300.0 mg/kg/injection, schedule: Q01DX001 (ip), vehicle: carboxymethylcellulose (CMC) 87 % of control

CC1(C)OC(CF)C2OC(C)(C)OC(CF)C2O1 (centres undefined)
inactive: dose: 56.25 mg/kg/injection, schedule: Q01DX009 (ip), vehicle: carboxymethylcellulose (CMC) 95 % of control | [10] 96 % of control | dose: 112.5 mg/kg/injection, schedule: Q01DX009 (ip), vehicle: carboxymethylcellulose (CMC) 102 % of control | dose: 200.0 mg/kg/injection, schedule: Q01DX001 (ip), vehicle: carboxymethylcellulose (CMC) 96 % of control | dose: 400.0 mg/kg/injection, schedule: Q01DX001 (ip), vehicle: carboxymethylcellulose (CMC) 104 % of control

Clc1cccc(C[N+]23CC[N+](Cc4cccc(Cl)c4)(CC2)C3)c1
inactive: [3] 103 % of control | [4] 111 % of control

CCc1c(C)c2n(c1C)C(=O)C=C2N(CC)CC
inactive: [3] 106 % of control | [4] 102 % of control | [11] 96 % of control

CC1(C)N=C(N)N=C(N)N1c1cccc(CCCc2ccccc2)c1
inactive: dose: 1.56 mg/kg/injection, schedule: Q01DX001 (ip), vehicle: saline 98 % of control | dose: 3.12 mg/kg/injection, schedule: Q01DX001 (ip), vehicle: saline 91 % of control | dose: 6.25 mg/kg/injection, schedule: Q01DX001 (ip), vehicle: saline 88 % of control | dose: 25.0 mg/kg/injection, schedule: Q01DX001 (ip), vehicle: saline 89 % of control

CCCCCCCC/C=C\CCCCCCCC(=O)OCCSCCOC(C)=O
inactive: [12] 97 % of control | [13] 89 % of control | [14] 102 % of control | [15] 92 % of control | dose: 400.0 mg/kg/injection, schedule: Q01DX009 (ip), vehicle: saline with Tween-80 102 % of control | [16] 94 % of control

C=CCN(CC=C)c1nc(Cl)nc(Cl)n1
inactive: dose: 50.0 mg/kg/injection, schedule: Q01DX001 (ip), vehicle: carboxymethylcellulose (CMC) 106 % of control | [10] 98 % of control | [17] 105 % of control | [18] 101 % of control

O=[N+]([O-])c1ccc(C(O)C=C(C(F)(F)F)C(F)(F)F)cc1 (centres undefined)
inactive: [1] 100 % of control | [2] 97 % of control | [19] 95 % of control | [20] 95 % of control | [21] 97 % of control

CC(C)OC(=S)SCC(=O)c1ccccc1
inactive: [17] 92 % of control | [18] 101 % of control | [22] 99 % of control

O=C(Nc1ccc(C2=NCCN2)cc1)c1cc(Cl)c(C(=O)Nc2ccc(C3=NCCN3)cc2)cc1Cl
inactive: dose: 13.4 mg/kg/injection, schedule: Q01DX Z (ip), vehicle: carboxymethylcellulose (CMC) 104 % of control | dose: 20.0 mg/kg/injection, schedule: Q01DX Z (ip), vehicle: carboxymethylcellulose (CMC) 123 % of control | dose: 45.0 mg/kg/injection, schedule: Q01DX Z (ip), vehicle: carboxymethylcellulose (CMC) 88 % of control

CCC(C)c1ccc(-c2ccc(OC)cc2)cc1 (centres undefined)
inactive: [13] 86 % of control | [15] 86 % of control

Cc1cc(Oc2ccc(Cl)cc2NC(=O)Nc2ccc(Cl)c(Cl)c2)c(S(=O)(=O)O)cc1Cl
inactive: dose: 12.5 mg/kg/injection, schedule: Q04DX003 (ip), vehicle: saline 103 % of control | dose: 25.0 mg/kg/injection, schedule: Q01DX009 (ip), vehicle: saline 103 % of control | dose: 25.0 mg/kg/injection, schedule: Q04DX003 (ip), vehicle: saline 105 % of control | [5] 95 % of control | [6] 103 % of control | [7] 101 % of control | [8] 97 % of control

COc1ccc(C)cc1NC(=S)NC(=O)c1cccc2ccccc12
inactive: dose: 50.0 mg/kg/injection, schedule: Q01DX009 (ip), vehicle: Klucel (hydroxypropylcellulose) (HPC) 93 % of control | [23] 87 % of control | [19] 95 % of control | [24] 88 % of control | [20] 94 % of control | dose: 300.0 mg/kg/injection, schedule: Q01DX009 (ip), vehicle: Klucel (hydroxypropylcellulose) (HPC) 104 % of control and 87 % of control

CCN(CC)CCNC(=O)c1ccc(N=Cc2cc(Cl)cc(Cl)c2O)cc1
inactive: [23] 100 % of control | [24] 96 % of control

CCOC(=O)Cc1ccc2[nH]c(C(=O)OCC)cc(=O)c2c1
inactive: [3] 95 % of control | [4] 90 % of control | [11] 95 % of control

O=C(Nc1ccccc1F)N(CC(O)c1ccccc1)C1CCCCC1 (centres undefined)
inactive: [23] 97 % of control | [24] 95 % of control | [25] 94 % of control

CC(C)=NOC(=O)Nc1ccc2c(c1)OCO2
inactive: [13] 109 % of control | [15] 97 % of control | [16] 101 % of control

CCOC(=O)c1cc(C(=O)OCC)c(C)nc1C
inactive: dose: 75.0 mg/kg/injection, schedule: Q01DX001 (ip), vehicle: saline 96 % of control | dose: 75.0 mg/kg/injection, schedule: Q01DX009 (ip), vehicle: saline 94 % of control | [19] 96 % of control | dose: 150.0 mg/kg/injection, schedule: Q01DX001 (ip), vehicle: saline 98 % of control | dose: 150.0 mg/kg/injection, schedule: Q01DX009 (ip), vehicle: saline 94 % of control | [20] 93 % of control | dose: 300.0 mg/kg/injection, schedule: Q01DX001 (ip), vehicle: saline 100 % of control | dose: 300.0 mg/kg/injection, schedule: Q01DX009 (ip), vehicle: saline 91 % of control | [21] 93 % of control

CC1(C)CNC(C(=O)O)C1 (centres undefined)
inactive: [12] 100 % of control | [8] 96 % of control | [14] 96 % of control | [9] 95 % of control | [26] 98 % of control

O=c1[nH]cnc2c1ncn2CCCOc1ccccc1
inactive: [17] 91 % of control | [18] 88 % of control | [22] 88 % of control

Cc1c(Cl)cccc1NC(=O)c1ccccc1Cl
inactive: [23] 94 % of control | [8] 122 % of control | [24] 94 % of control | [9] 108 % of control | [25] 95 % of control | [26] 108 % of control
